Measured values published in patent publication US20080102042A1, “Oral Composition” (KYOWA HAKKO KOGYO CO., LTD., priority 2004, published 2008).

What was measured:
[1] = tested on: advanced alveolar pyorrhea; test: Test Example 1: injection into the periodontal pocket of a patient with advanced alveolar pyorrhea, with gingival massage; type: in vivo, human; conditions: buffered saline (pH 7.0) containing 2.5% by weight, 0.8 ml into periodontal pocket, gingiva massaged, twice a day for two weeks; one patient
Protocol: Buffered saline (pH 7.0) containing 2.5% by weight of N-acetylhydroxyproline (0.8 ml) was injected into the periodontal pocket of a patient with advanced alveolar pyorrhea and the gingiva was lightly massaged.

alveolar pyorrhea = test: Test Example 2: injection into the periodontal pocket of a patient with alveolar pyorrhea (big periodontal pocket, loose tooth), then continued toothbrushing; type: in vivo, human
Protocol: This treatment was carried out after toothbrushing three times a day for two weeks. […] Thereafter, toothbrusing was continuously carried out using a very fine toothbrush with buffered saline (pH 7.0) containing 2.5% by weight of N-acetylhydroxyproline on it with massage of the gingiva and the inside of the periodontal pocket. This toothbrusing was carried out for more than three minutes three times a day.

[2] = buffered saline (pH 7.0) containing 2.5% by weight, 0.8 ml into periodontal pocket, after toothbrushing three times a day for two weeks, one patient

CC(=O)N1C[C@H](O)C[C@H]1C(=O)O [N-acetylhydroxyproline, N-acetyl-trans-4-hydroxy-L-proline]
symptoms of alveolar pyorrhea [1]: remarkably improved
looseness of the tooth (alveolar pyorrhea; [2]): remarkably improved
pain of alveolar pyorrhea (alveolar pyorrhea; [2]): completely disappeared
healthy state without pain or looseness of tooth (prevention of recurrence) (alveolar pyorrhea; thereafter continued toothbrushing with buffered saline (pH 7.0) containing 2.5% by weight, more than three minutes three times a day): could be maintained
